Test results as given in US9145411B2, “Substituted amino-pyrimidine derivatives” (Asana Biosciences, LLC, priority 2012, dated 2015).

Columns and labels:
[1] = target: T1, PI3Kα (wild-type) (Homo sapiens, UniProt P42336); assay: PI3 Kinase TR-FRET assay, PI3Kα (wild-type); type: biochemical; details: wild-type P110/P85α, 10 μM ATP
T1 construct: made in house; host or cells: SF9 insect cells
Description: The ability of compounds of the invention to inhibit PI3K activity was determined in a homogeneous TR-FRET assay using a PI3K assay kit (Millipore, USA; cat #33-016) according to manufacturer's instructions. PI3-Kinases (isoforms α, β, γ and δ) catalyze the phosphorylation of phosphatidylinositol, PIP2 to PIP3 in the presence of ATP and Mg^2+. The PIP3 product is detected by displacement of biotin-PIP3 from an energy transfer complex consisting of Europium labeled anti-GST monoclonal antibody, a GST-tagged PH domain, biotinylated PIP3 and Streptavidin-APC. Excitation of Europium in the complex results in an energy transfer to the APC and a fluorescence emission at 665 nm. The PIP3 product displaces biotin-PIP3 from the complex resulting in a loss of energy transfer and thus a decrease in signal.
To test for the ability of compounds to inhibit the activity of PI3Kα (wild-type), exemplary compounds of formula (I) were dissolved in DMSO and directly distributed into 384-well plates at a volume of 0.5 μL. 14.5 μL of P110/P85α/PIP2 mixture in buffer (obtained from the Millipore kit) containing MgCl2 (40 mM) and DTT (5 mM) was added to compound wells and incubated for 60 minutes at room temperature. P110/P85α was expressed in SF9 insect cells and purified nickel column extraction. Five ng of wild-type P110/P85α was used in the assay. The kinase reaction was started by the addition of ATP. The assay concentrations of both PIP2 and ATP were 10 μM. The reaction mixture was incubated for 30 minutes at room temperature and was terminated by the addition of stop mix and detection mix. Fluorescence was measured at 615 and 665 nm upon excitation at 340 nm in a Victor™ V5 fluorometer (Perkin Elmer, USA). The fluorescence emission ratio at 665 to 615 nm, proportional to the kinase activity, was plotted against the compound concentration to generate dose-response curves and IC50 values were determined using GraphPad Prism® 5 software.

[2] = target: T2, mTOR kinase (Homo sapiens, UniProt P42345); assay: mTOR kinase TR-FRET assay; type: biochemical; details: 20 μM ATP
T2 construct: purchased Millipore, USA
T2 sequence (P42345 1362-2549 limits assumed): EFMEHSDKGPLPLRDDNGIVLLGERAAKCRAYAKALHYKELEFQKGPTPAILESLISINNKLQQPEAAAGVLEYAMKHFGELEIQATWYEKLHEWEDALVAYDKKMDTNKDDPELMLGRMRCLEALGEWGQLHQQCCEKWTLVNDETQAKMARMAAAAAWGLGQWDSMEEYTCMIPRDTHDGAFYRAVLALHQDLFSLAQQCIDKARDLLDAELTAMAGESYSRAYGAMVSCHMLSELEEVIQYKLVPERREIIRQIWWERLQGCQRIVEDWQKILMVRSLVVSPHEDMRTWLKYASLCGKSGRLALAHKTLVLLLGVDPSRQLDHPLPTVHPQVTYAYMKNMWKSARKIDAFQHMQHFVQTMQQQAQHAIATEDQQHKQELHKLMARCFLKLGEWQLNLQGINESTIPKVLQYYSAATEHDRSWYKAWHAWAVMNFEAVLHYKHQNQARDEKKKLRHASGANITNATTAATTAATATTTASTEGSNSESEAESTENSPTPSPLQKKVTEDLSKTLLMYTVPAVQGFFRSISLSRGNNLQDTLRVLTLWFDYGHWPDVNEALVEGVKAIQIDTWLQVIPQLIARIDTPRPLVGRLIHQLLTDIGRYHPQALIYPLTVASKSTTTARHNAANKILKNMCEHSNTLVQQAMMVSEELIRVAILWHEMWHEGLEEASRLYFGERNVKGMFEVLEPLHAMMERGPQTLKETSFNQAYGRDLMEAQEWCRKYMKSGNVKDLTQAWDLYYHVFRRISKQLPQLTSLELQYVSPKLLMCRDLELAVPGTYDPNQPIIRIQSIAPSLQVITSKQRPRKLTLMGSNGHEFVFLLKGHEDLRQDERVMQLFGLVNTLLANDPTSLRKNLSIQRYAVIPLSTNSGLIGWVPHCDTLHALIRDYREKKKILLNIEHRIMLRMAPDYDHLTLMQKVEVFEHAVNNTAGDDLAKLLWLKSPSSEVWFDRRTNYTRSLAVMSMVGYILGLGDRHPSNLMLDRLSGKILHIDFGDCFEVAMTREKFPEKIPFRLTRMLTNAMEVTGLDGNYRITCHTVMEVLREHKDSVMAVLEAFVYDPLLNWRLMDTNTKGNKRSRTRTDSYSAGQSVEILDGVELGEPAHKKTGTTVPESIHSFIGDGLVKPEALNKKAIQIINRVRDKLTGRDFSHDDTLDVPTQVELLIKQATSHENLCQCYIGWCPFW
Description: Compound inhibition for mTOR kinase was determined in a homogeneous TR-FRET assay using the Lance® ULight-p70 S6K (Thr 389) peptide (obtained from Perkin-Elmer). The ULight™-labeled synthetic peptide contains the amino acid residues surrounding Thr389 of human p70 S6K. The ULight-p70 S6K peptide is phosphorylated at Thr389 by mTOR. Phosphorylation motif: LGFTYVAP as substrate.
The compound dilution was carried out in 100% DMSO followed by a buffer dilution. The reaction buffer was HEPES (50 mM pH 7.5), EGTA (1 mM), MnCl2 (3 mM). Test compounds at various concentrations were pre-incubated with mTOR (Millipore, USA; 5 ng) for 60 min, and then the Lance® ULight-p70 S6K (Thr 389) peptide (50 nM) was added along with ATP (20 μM). After incubating the reaction mixture for 60 minutes at room temperature, the kinase reaction was terminated by the addition of EDTA (10 mM) followed by the addition of detection mix, i.e., 1 nM Eu-labeled anti-phospho-substrate antibody (Perkin Elmer, USA). The fluorescence emission at […] was measured upon excitation at 340 nm. IC50 values were subsequently determined using a sigmoidal dose-response curve (variable slope) in GraphPad Prism® 5 software.
Compounds of formula (I) caused inhibition of mTOR kinase activity as determined by this assay.

[3] = test system: PC3 cells; assay: XTT assay for cell viability, PC3 cells; type: cell-based; details: Homo sapiens, PC-3; PC3 cell proliferation, 96 hours
Description: Using a commercial kit from Sigma Aldrich (Catalog #X34251) and following its protocol, PC3 cells in the log phase of growth were employed and seeded at an optimal density of 1000 cell/well on to 96 well plates and incubated for 24 hours followed by the addition of compounds of formula (I) in serial dilutions. Compound dilutions were made in DMSO. The cells were incubated with the compounds of formula (I) for 96 hours and XTT tetrazolium dye (Sigma, USA) was subsequently added and incubated at 37° C. After the color formation, absorbance was measured at 465 nm in a Spectramax® Gemini spectrophotometer. EC50 values were calculated using a sigmoidal dose response curve fit in GraphPad Prism® v5 software. The tested compounds of formula (I) which caused inhibition of PC3 cell proliferation as determined by this assay protocol are shown in Table 2.

T1 sequence (P42336 whole entry, species assumed): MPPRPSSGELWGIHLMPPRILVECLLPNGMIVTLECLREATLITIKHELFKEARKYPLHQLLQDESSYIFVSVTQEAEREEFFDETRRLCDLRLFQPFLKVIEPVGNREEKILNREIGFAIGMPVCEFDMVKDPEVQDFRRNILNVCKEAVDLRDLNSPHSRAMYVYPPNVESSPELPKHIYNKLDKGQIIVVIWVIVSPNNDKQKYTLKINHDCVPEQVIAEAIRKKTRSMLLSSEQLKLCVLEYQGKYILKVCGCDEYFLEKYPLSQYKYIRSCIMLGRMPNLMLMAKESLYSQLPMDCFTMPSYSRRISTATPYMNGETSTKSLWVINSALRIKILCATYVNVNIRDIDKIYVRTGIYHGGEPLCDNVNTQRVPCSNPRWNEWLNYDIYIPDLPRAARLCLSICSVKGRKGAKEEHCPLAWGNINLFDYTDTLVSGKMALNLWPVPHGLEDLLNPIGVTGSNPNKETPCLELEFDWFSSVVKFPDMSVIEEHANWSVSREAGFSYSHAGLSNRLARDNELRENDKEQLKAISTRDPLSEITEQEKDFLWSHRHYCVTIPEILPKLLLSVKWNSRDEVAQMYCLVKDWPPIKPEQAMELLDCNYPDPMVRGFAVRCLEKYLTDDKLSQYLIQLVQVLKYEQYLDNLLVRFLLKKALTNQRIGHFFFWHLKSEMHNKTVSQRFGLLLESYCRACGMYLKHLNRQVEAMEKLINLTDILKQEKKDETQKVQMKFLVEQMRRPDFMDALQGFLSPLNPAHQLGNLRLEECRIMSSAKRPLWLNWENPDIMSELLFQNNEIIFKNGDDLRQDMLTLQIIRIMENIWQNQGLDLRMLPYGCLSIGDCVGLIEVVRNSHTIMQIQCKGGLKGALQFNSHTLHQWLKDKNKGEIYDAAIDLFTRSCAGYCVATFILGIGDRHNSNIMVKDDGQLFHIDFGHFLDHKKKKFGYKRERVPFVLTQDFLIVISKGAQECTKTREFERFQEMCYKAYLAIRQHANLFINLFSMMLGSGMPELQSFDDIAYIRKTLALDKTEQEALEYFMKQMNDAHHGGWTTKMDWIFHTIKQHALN
T1 sequence (P27986 whole entry partner, species assumed): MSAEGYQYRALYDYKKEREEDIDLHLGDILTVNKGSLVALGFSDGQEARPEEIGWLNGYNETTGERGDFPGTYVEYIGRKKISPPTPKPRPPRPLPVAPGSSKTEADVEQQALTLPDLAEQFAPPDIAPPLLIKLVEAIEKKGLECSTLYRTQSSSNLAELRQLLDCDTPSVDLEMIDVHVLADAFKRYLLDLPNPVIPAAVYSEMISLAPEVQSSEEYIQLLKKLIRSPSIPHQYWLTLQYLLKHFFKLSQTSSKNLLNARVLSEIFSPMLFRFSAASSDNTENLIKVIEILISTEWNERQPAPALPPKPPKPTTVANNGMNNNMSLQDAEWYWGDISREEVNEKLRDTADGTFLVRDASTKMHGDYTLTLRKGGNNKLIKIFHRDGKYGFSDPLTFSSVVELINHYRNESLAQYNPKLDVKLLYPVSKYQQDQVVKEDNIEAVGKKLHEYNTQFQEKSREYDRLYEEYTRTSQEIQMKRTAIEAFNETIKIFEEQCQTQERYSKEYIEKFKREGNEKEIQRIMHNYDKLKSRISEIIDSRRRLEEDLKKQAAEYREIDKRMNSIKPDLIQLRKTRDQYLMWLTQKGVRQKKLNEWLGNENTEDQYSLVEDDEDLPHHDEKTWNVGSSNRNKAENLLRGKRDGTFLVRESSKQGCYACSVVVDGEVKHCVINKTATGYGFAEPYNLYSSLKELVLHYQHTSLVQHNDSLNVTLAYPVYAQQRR

Compound	IC50 [1] [nM]	IC50 [2] [nM]	IC50 [3] [nM]
Nc1ncc(-c2nc(N3CCOCC3)c3ncc(-c4ccc(C(=O)NC5CC5)cc4)cc3n2)cn1 [Example 4, 4-(2-(2-Aminopyrimidin-5-yl)-4-morpholinopyrido[3,2-d]pyrimidin-7-yl)-N-cyclopropylbenzamide]	< 50	< 50	< 100
Nc1ncc(-c2nc(N3CCOCC3)c3ncc(-c4cccc(NC(=O)N5CCOCC5)c4)cc3n2)cn1 [Example 10, N-(3-(2-(2-aminopyrimidin-5-yl)-4-morpholinopyrido[3,2-d]pyrimidin-7-yl)-phenyl)morpholine-4-carboxamide]	< 50	< 50	501 to 5000
CC(=O)Nc1cccc(-c2ccc3c(N4CCOCC4)nc(-c4cnc(N)nc4)nc3c2)c1 [Example 13, N-(3-(2-(2-amino-pyrimidin-5-yl)-4-morpholinoquinazolin-7-yl)phenyl)acetamide]	201 to 10000	50 to 200	501 to 5000
Cn1cc(-c2ccc3c(N4CCOCC4)nc(-c4cnc(N)nc4)nc3c2)cn1 [Example 14, 5-(7-(1-methyl-1H-pyrazol-4-yl)-4-morpholinoquinazolin-2-yl)pyrimidin-2-amine]	201 to 10000	201 to 10000	501 to 5000
CNC(=O)Nc1cccc(-c2ccc3c(N4CCOCC4)nc(-c4cnc(N)nc4)nc3c2)c1 [Example 15, 1-(3-(2-(2-amino-pyrimidin-5-yl)-4-morpholinoquinazolin-7-yl)phenyl)-3-methylurea]	201 to 10000	< 50	501 to 5000
CS(=O)(=O)Nc1cccc(-c2ccc3c(N4CCOCC4)nc(-c4cnc(N)nc4)nc3c2)c1 [Example 16, N-(3-(2-(2-amino-pyrimidin-5-yl)-4-morpholinoquinazolin-7-yl)phenyl)methane-sulfonamide]	50 to 200	< 50	501 to 5000
Nc1ncc(-c2nc(N3CCOCC3)c3ncc(-c4ccco4)cc3n2)cn1 [Example 25, 5-(7-(furan-2-yl)-4-morpholinopyrido[3,2-d]-pyrimidin-2-yl)pyrimidin-2-amine]	< 50	< 50	100 to 500
Cc1ccc(-c2cnc3c(N4CCOCC4)nc(-c4cnc(N)nc4)nc3c2)o1 [Example 26, 5-(7-(5-methylfuran-2-yl)-4-morpholino-pyrido[3,2-d]pyrimidin-2-yl)pyrimidin-2-amine]	< 50	50 to 200	501 to 5000
CNC(=O)Nc1cccc(-c2cnc3c(N4CCOCC4)nc(-c4cnc(N)nc4)nc3c2)c1 [Example 28, 1-(3-(2-(2-amino-pyrimidin-5-yl)-4-morpholinopyrido[3,2-d]pyrimidin-7-yl)phenyl)-3-methylurea]	< 50	50 to 200	501 to 5000
Nc1ncc(-c2nc(N3CCOCC3)c3ncc(-c4ccc(C(=O)Nc5cccnc5)o4)cc3n2)cn1 [Example 34, 5-(2-(2-aminopyrimidin-5-yl)-4-morpholino-pyrido[3,2-d]pyrimidin-7-yl)-N-(pyridin-3-yl)furan-2-carboxamide]	< 50	< 50	100 to 500
Nc1ncc(-c2nc(N3CCOCC3)c3ncc(-c4ccc(C(=O)N5CCC(O)CC5)cc4)cc3n2)cn1 [Example 39, (4-(2-(2-aminopyrimidin-5-yl)-4-morpholino-pyrido[3,2-d]pyrimidin-7-yl)phenyl)(4-hydroxy-piperidin-1-yl)methanone]			501 to 5000
Nc1ncc(-c2nc(N3CCOCC3)c3ncc(-c4cccc(C(=O)N5CCC(O)CC5)c4)cc3n2)cn1 [Example 40, (3-(2-(2-aminopyrimidin-5-yl)-4-morpholino-pyrido[3,2-d]pyrimidin-7-yl)phenyl)(4-hydroxy-piperidin-1-yl)methanone]			100 to 500
Cc1cc(C(=O)Nc2ccc(-c3cnc4c(N5CCOCC5)nc(-c5cnc(N)nc5)nc4c3)cc2)[nH]n1 [Example 80, N-(4-(2-(2-amino-pyrimidin-5-yl)-4-morpholinopyrido[3,2-d]pyrimidin-7-yl)phenyl)-3-methyl-1H-pyrazole-5-carboxamide]			> 1000
Nc1ncc(-c2nc(N3CCOCC3)c3ccc(-c4cccc(NC(=O)N5CCOCC5)c4)cc3n2)cn1 [Example 88, N-(3-(2-(2-amino-pyrimidin-5-yl)-4-morpholinoquinazolin-7-yl)phenyl)morpholine-4-carboxamide]	50 to 200	50 to 200	
CC(O)C(=O)N1CCN(Cc2ccc3c(N4CCOCC4)nc(-c4cnc(N)nc4)nc3c2)CC1 (stereo not drawn) [Example 90, 1-(4-((2-(2-aminopyrimidin-5-yl)-4-morpholinoquinazolin-7-yl)methyl)piperazin-1-yl)-2-hydroxypropan-1-one]	201 to 10000	201 to 10000	
CC(C)(O)C(=O)N1CCN(Cc2ccc3c(N4CCOCC4)nc(-c4cnc(N)nc4)nc3c2)CC1 [Example 91, 1-(4-((2-(2-amino-pyrimidin-5-yl)-4-morpholinoquinazolin-7-yl)methyl)piperazin-1-yl)-2-hydroxy-2-methyl-propan-1-one]	201 to 10000	201 to 10000	
CC(=O)N1CCN(Cc2ccc3c(N4CCOCC4)nc(-c4cnc(N)nc4)nc3c2)CC1 [Example 92, 1-(4-((2-(2-amino-pyrimidin-5-yl)-4-morpholinoquinazolin-7-yl)methyl)piperazin-1-yl)ethanone]	201 to 10000	201 to 10000	
CC(=O)NC1CCN(Cc2ccc3c(N4CCOCC4)nc(-c4cnc(N)nc4)nc3c2)CC1 [Example 93, N-(1-((2-(2-amino-pyrimidin-5-yl)-4-morpholinoquinazolin-7-yl)methyl)piperidin-4-yl)-acetamide]	201 to 10000	201 to 10000	
Nc1ncc(-c2nc(N3CCOCC3)c3ncc(CN4CCNCC4)cc3n2)cn1 [Example 94, 5-(4-morpholino-7-(piperazin-1-yl-methyl)pyrido[3,2-d]-pyrimidin-2-yl)pyrimidin-2-amine]	50 to 200	201 to 10000	
CS(=O)(=O)Nc1cncc(-c2cnc3c(N4CCOCC4)nc(-c4cnc(N)nc4)nc3c2)c1 [Example 96, N-(5-(2-(2-amino-pyrimidin-5-yl)-4-morpholinopyrido[3,2-d]-pyrimidin-7-yl)pyridin-3-yl)methanesulfonamide]	< 50	< 50	
CN1CCN(C(=O)c2cccc(-c3cnc4c(N5CCOCC5)nc(-c5cnc(N)nc5)nc4c3)c2)CC1 [Example 110, (3-(2-(2-aminopyrimidin-5-yl)-4-morpholinopyrido[3,2-d]-pyrimidin-7-yl)phenyl)(4-methylpiperazin-1-yl)-methanone]		50 to 200	100 to 500
CN(C)CC(=O)N1CCN(c2cccc(-c3cnc4c(N5CCOCC5)nc(-c5cnc(N)nc5)nc4c3)c2)CC1 [Example 112, 1-(4-(3-(2-(2-amino-pyrimidin-5-yl)-4-morpholinopyrido[3,2-d]pyrimidin-7-yl)-phenyl)piperazin-1-yl)-2-(dimethylamino)ethanone]	< 50	< 50	
